From US3959300A, “Novel indolobenzazepine derivatives, useful as tranquilizers” (priority 1974, dated 1976)

Experiments:
Type in all cases: in vivo
[1] = tested on: amphetamine hyperactivity; test: Mouse Anti-Amphetamine Activity (A.A.); details: po, mouse, d-amphetamine sulfate 5 mg/kg sc 1 hour after compound, 60 minutes recording; for ED50: read-out: A.A. (mouse) ED50
Procedure: (§1) Results given in: mg/kg po/mouse
Mouse Anti-Amphetamine Activity: Groups of 5 mice are given d-amphetamine sulfate 5 mg/kg sc 1 hour after oral administration of graded doses of test compound. The mice are placed in photocell activity units immediately after amphetamine administration and locomotor activity is recorded for 60 minutes. The ED50 is calculated as the dose causing a 50% reduction in locomotor activity relative to the activity of the amphetamine-treated control mice. Amphetamine antagonism at non-toxic doses appears to correlate with major tranquilizer activity in man.

locomotor activity = test: Mouse Screen (decrease in locomotor activity); details: po, mouse, lowest dose producing obvious decrease in locomotor activity; for minimal effective dose: read-out: Screen (mouse) MED
Excerpt: as §1
Mouse Screen: The minimal effective dose (MED) is the lowest oral dose producing an obvious decrease in locomotor activity, using observational techniques. Groups of 3 mice are given decreasing oral doses at 0.5 log intervals (300, 100, 30 . . . etc.) until no behavioral effects are evident. Decrease of locomotor activity is indicative of general central nervous system depressant activity.

[2] = tested on: Conditioned Avoidance Response; test: Mouse Conditioned Avoidance Response (C.A.R.); details: po, mouse, tested 1, 2, and 4 hours after administration; for ED50: read-out: C.A.R. (mouse) ED50
Procedure: (§2) Results given in: mg/kg po/mouse mg/kg po/rat
(§3) Mouse and Rat Conditioned Avoidance Response: Mice and rats are trained to jump out of a pit onto a ledge to avoid shock when presented with a light and sound conditioned stimulus. The animals are tested 1, 2, and 4 hours after administration of the test compound. Three to 4 dose levels and groups of 4-8 animals/dose are used. The ED50 is the dose producing a block of the C.A.R. in 50% of the animals. Blocking of the C.A.R. at non-toxic doses appears to correlate with major tranquilizer activity in man.

taming = test: Rhesus Monkey Taming Effects; details: po, rhesus monkey; for minimal effective dose: Macaca mulatta, read-out: Taming (monkey) MED
Procedure: Results given in: mg/kg po/monkey
Rhesus Monkey Taming Effects: Compounds are administered orally to groups of six rhesus monkeys. The behavior of the animals is then evaluated by observational means. Taming effects are determined by the ability of the observer to approach and touch the monkey. Compounds with major tranquilizer activity in man can produce a state of passive tameness in the rhesus monkey wherein it can be touched without provoking any of the threatening or aggressive behavior seen in the normal animal. The MED is the minimal oral dose at which some taming effect can be observed.

[3] = tested on: approach-avoidance ("conflict") situation; test: Rat Conflict (Approach-Avoidance) Test; details: for Conflict (rat) MED / minimal effective dose: po, reexposed after 1 or 2 hours, rat; for minimal effective dose: read-out: Conflict (rat) MED
Procedure: Results given in: mg/kg po/rat
Rat Conflict (Approach-Avoidance) Test: Food deprived rats are trained to pass from one compartment to an adjacent one to obtain food. The training consists of three exposures to the test situation on day one of the experiment. The rats are given limited (1-2 hr) free access to food in their home cages on day one and are then food deprived for at least 18 hours. On day two of the experiment, the rats are given a control exposure to the test situation followed by a second exposure after 1/2 to 1 hour in which they are shocked after crossing and eating. Groups of 6-8 rats are then dosed orally with solvent or test compound and then reexposed to the test situation after 1 or 2 hours.
This effect is dose-related (and the MED is the minimum dose at which this effect is obtained); rats dosed with solvent only consistently show a high level of fear as evidenced by decreased mobility and absence of feeding when placed in the test situation after receiving a shock.

[4] = tested on: Conditioned Avoidance Response; test: Rat Conditioned Avoidance Response (C.A.R.); details: po, rat, tested 1, 2, and 4 hours after administration; for ED50: read-out: C.A.R. (rat) ED50
Procedure: as §2, §3

[5] = tested on: Conditioned Avoidance Response; test: Dog Conditioned Avoidance Response (C.A.R.); details: po, dog, 1, 2, and 4 hours after administration; for ED50: Canis lupus familiaris, read-out: C.A.R. (dog) ED50
Procedure: Results given in: mg/kg po/dog
Dog Conditioned Avoidance Response: Dogs are trained to raise a forelimb when presented with a conditioned stimulus (light) in order to avoid an electric shock. Blocks of 10 trials are given to groups of four dogs during a pretreatment period and at 1, 2, and 4 hours after oral administration of test compound. The ED50 values are calculated as the dose causing 50% of the animals to show five or more incorrect responses. Blocking of the C.A.R. at non-toxic doses appears to correlate with major tranquilizer activity in man.

Molecule: 3-[(3-cyclohexen-1-yl)methyl]-1,2,3,4,8,9-hexahydropyrido[4',3':2,3]indolo[1,7-ab][1]benzazepine hydrochloride [No. 9]
- A.A. (mouse) ED50 [1]: 5 mg/kg
- Screen (mouse) MED (locomotor activity): 3 to 10 mg/kg

Molecule: 3-(1-cyclopropylethyl)-1,2,3,4,8,9-hexahydropyrido[4',3':2,3]indolo[1,7-ab][1]benzazepine hydrochloride [Example 20]
- Screen (mouse) MED (locomotor activity): 30 to 100 mg/kg

Molecule: 3-[(2,3-dimethyl-2-cyclopropen-1-yl)methyl]-1,2,3,4,8,9-hexahydropyrido[4',3':2,3]indolo[1,7-ab][1]benzazepine hydrochloride [No. 12]
- Screen (mouse) MED (locomotor activity): 10 to 30 mg/kg

Molecule: 1,2,3,4,8,9-hexahydro-3-[(4-methylbicyclo[2.2.2]oct-1-yl)methyl]pyrido[4',3':2,3]indolo[1,7-ab][1]benzazepine hydrochloride [Example 15]
- A.A. (mouse) ED50 [1]: 3 to 10 mg/kg
- Screen (mouse) MED (locomotor activity): 10 to 30 mg/kg
- C.A.R. (mouse) ED50 [2]: 10 to 30 mg/kg
- Taming (monkey) MED (taming): > 10 mg/kg

Molecule: C#CCN1CCc2c(c3cccc4c3n2-c2ccccc2CC4)C1.Cl [No. 19, 1,2,3,4,8,9-hexahydro-3-(2-propynyl)pyrido[4',3':2,3]indolo[1,7-ab][1]benzazepine hydrochloride]
- ED50 [1]: 30 to 100 mg/kg
- minimal effective dose (locomotor activity): 10 to 30 mg/kg
- ED50 [2]: 20 mg/kg

Molecule: 1,2,3,4,8,9-hexahydro-3-[(4-methylbicyclo[2.2.2]oct-2-en-1-yl)methyl]pyrido[4', 3':2,3]indolo[1,7-ab][1]benzazepine hydrochloride [Example 16]
- A.A. (mouse) ED50 [1]: 60 mg/kg
- Conflict (rat) MED [3]: 10 to 20 mg/kg
- Screen (mouse) MED (locomotor activity): 100 to 300 mg/kg
- C.A.R. (rat) ED50 [4]: 30 mg/kg
- C.A.R. (mouse) ED50 [2]: 30 to 60 mg/kg
- Taming (monkey) MED (taming): 20 mg/kg
- C.A.R. (dog) ED50 [5]: > 10 mg/kg

Molecule: Cl.c1ccc2c(c1)CCc1cccc3c4c(n-2c13)CCN(CC1CCCCC1)C4 [No. 8, 3-(cyclohexylmethyl)-1,2,3,4,8,9-hexahydropyrido[4',3':2,3]indolo[1,7-ab][1]benzazepine hydrochloride]
- ED50 [1]: 2 mg/kg
- minimal effective dose [3]: > 40 mg/kg
- minimal effective dose (locomotor activity): 3 to 10 mg/kg
- ED50 [4]: 30 mg/kg
- ED50 [2]: 20 mg/kg
- minimal effective dose (taming): 1 to 3 mg/kg
- ED50 [5]: 10 mg/kg

Molecule: Cl.c1ccc2c(c1)CCc1cccc3c4c(n-2c13)CCN(CC1CCC1)C4 [No. 6, 3-(cyclobutylmethyl)-1,2,3,4,8,9-hexahydropyrido[4',3':2,3]indolo[1,7-ab][1]benzazepine hydrochloride]
- ED50 [1]: 20 mg/kg
- minimal effective dose [3]: > 40 mg/kg
- minimal effective dose (locomotor activity): 10 to 30 mg/kg
- ED50 [4]: 4 mg/kg
- ED50 [2]: 6 mg/kg
- minimal effective dose (taming): 1 to 3 mg/kg
- ED50 [5]: 20 mg/kg

Molecule: Cl.c1ccc2c(c1)CCc1cccc3c4c(n-2c13)CCN(CC1CCCC1)C4 [No. 7, 3-(cyclopentylmethyl)-1,2,3,4,8,9-hexahydropyrido[4',3':2,3]indolo[1,7-ab][1]benzazepine hydrochloride]
- ED50 [1]: 2 mg/kg
- minimal effective dose [3]: > 40 mg/kg
- minimal effective dose (locomotor activity): 3 to 10 mg/kg
- ED50 [4]: 30 mg/kg
- ED50 [2]: 20 mg/kg
- minimal effective dose (taming): 1 to 3 mg/kg
- ED50 [5]: 6 mg/kg

Molecule: 3-(exo-7-norcarylmethyl)-1,2,3,4,8,9-hexahydropyrido[4',3':2,3]indolo[1,7- ab][1]benzazepine hydrochloride [No. 10]
- A.A. (mouse) ED50 [1]: 3 to 10 mg/kg
- Screen (mouse) MED (locomotor activity): 10 to 30 mg/kg
- C.A.R. (mouse) ED50 [2]: 10 to 30 mg/kg
- Taming (monkey) MED (taming): 10 mg/kg

Molecule: 3-isobutyl-1,2,3,4,8,9-hexahydropyrido-[4', 3':2,3]indolo[1,7-ab ][1]benzazepine hydrochloride [No. 1, reference compound]
- A.A. (mouse) ED50 [1]: > 100 mg/kg
- Conflict (rat) MED [3]: > 40 mg/kg
- Screen (mouse) MED (locomotor activity): 100 to 300 mg/kg
- C.A.R. (rat) ED50 [4]: > 40 mg/kg
- Taming (monkey) MED (taming): > 20 mg/kg

Molecule: 3-(2-butynyl)-1,2,3,4,8,9-hexahydropyrido[4',3':2,3]indolo[1,7-ab][1]benzazepine hydrochloride [No. 20]
- A.A. (mouse) ED50 [1]: 6 mg/kg
- Conflict (rat) MED [3]: > 40 mg/kg
- Screen (mouse) MED (locomotor activity): 10 to 30 mg/kg
- C.A.R. (mouse) ED50 [2]: 10 to 30 mg/kg
- Taming (monkey) MED (taming): 1 to 3 mg/kg
- C.A.R. (dog) ED50 [5]: > 40 mg/kg

Molecule: 3-[(cis,cis-2,3-dimethylcyclopropyl)methyl]-1,2,3,4,8,9-hexahydropyrido[4',3':2,3]indolo[1,7-ab][1]benzazepine hydrochloride [No. 14]
- A.A. (mouse) ED50 [1]: 20 mg/kg
- Screen (mouse) MED (locomotor activity): 10 to 30 mg/kg
- C.A.R. (mouse) ED50 [2]: 20 mg/kg
- Taming (monkey) MED (taming): > 20 mg/kg

Molecule: 3-[cis-1,6-dimethyl-endo-3-norcaren-7-yl)methyl]-1,2,3,4,8,9-hexahydropyrido[4',3':2,3]indolo[1,7-ab][1]benzazepine [No. 13]
- Screen (mouse) MED (locomotor activity): 1 to 3 mg/kg

Molecule: 1,2,3,4,8,9-hexahydro-3-[(trans-2-methylcyclopropyl)methyl]pyrido[4',3':2,3]indolo[1,7-ab][1]benzazepine hydrochloride [No. 4]
- A.A. (mouse) ED50 [1]: 6 mg/kg
- Conflict (rat) MED [3]: > 40 mg/kg
- Screen (mouse) MED (locomotor activity): 10 to 30 mg/kg
- C.A.R. (mouse) ED50 [2]: 20 mg/kg
- Taming (monkey) MED (taming): 3 to 10 mg/kg

Molecule: 3-(2-adamantylmethyl)-1,2,3,4,8,9-hexahydropyrido[4',3':2,3]indolo[1,7-ab][1]benzazepine hydrochloride [Example 11]
- A.A. (mouse) ED50 [1]: > 100 mg/kg
- Screen (mouse) MED (locomotor activity): 100 to 300 mg/kg
- C.A.R. (rat) ED50 [4]: > 40 mg/kg
- C.A.R. (mouse) ED50 [2]: 30 mg/kg

Molecule: CC1(CN2CCc3c(c4cccc5c4n3-c3ccccc3CC5)C2)CC1.Cl [No. 5, 1,2,3,4,8,9-hexahydro-3-[(1-methylcyclopropyl)methyl]pyrido[4',3':2,3]indolo[1,7-ab][1]benzazepine hydrochloride]
- ED50 [1]: 3 to 10 mg/kg
- minimal effective dose [3]: 10 to 20 mg/kg
- minimal effective dose (locomotor activity): 10 to 30 mg/kg
- ED50 [2]: 10 to 30 mg/kg
- minimal effective dose (taming): 10 to 30 mg/kg
- ED50 [5]: 10 to 20 mg/kg

Molecule: CCCC(C)(COC(N)=O)COC(N)=O [meprobamate, reference compound]
- decreased fear in the test animals, in words ([3]; rats cross to obtain food despite earlier shock, dose-related): apparent decreased fear in the test animals

Molecule: 1,2,3,4,8,9-hexahydropyrido[4', 3':2,3] indolo[1,7-ab][1]benzazepine [Example 1]
- A.A. (mouse) ED50 [1]: 10 mg/kg
- Conflict (rat) MED [3]: > 40 mg/kg
- Screen (mouse) MED (locomotor activity): 10 to 30 mg/kg
- C.A.R. (rat) ED50 [4]: > 40 mg/kg
- C.A.R. (mouse) ED50 [2]: > 40 mg/kg
- Taming (monkey) MED (taming): 20 to 30 mg/kg

Molecule: 3-(1-adamantylmethyl)-1,2,3,4,8,9-hexahydropyrido[4',3':2,3]indolo[1,7-ab][1]benzazepine hydrochloride [No. 11]
- A.A. (mouse) ED50 [1]: 1 mg/kg
- Conflict (rat) MED [3]: > 40 mg/kg
- Screen (mouse) MED (locomotor activity): 3 to 10 mg/kg
- C.A.R. (rat) ED50 [4]: 6 mg/kg
- C.A.R. (mouse) ED50 [2]: 1 to 3 mg/kg
- Taming (monkey) MED (taming): 1 to 3 mg/kg
